No end group written: not given here.

This is an account of results in patent US7348402B2, “Antimicrobial peptide, its analogs and antimicrobial composition comprising them” (priority 2002, dated 2008).

Common to all, as to assay type: cell-based
Experiment [1] deals with Bacillus subtilis (ATCC 62037). To be noted: ATCC 62037, 12 h. An excerpt:
(§1) The microorganisms used in the present invention include Gram-positive bacteria such as Bacillus subtilis (ATCC 62037), Staphylococcus aureus (ATCC 15752) and Streptococcus mutans (ATCC 25175), Gram-negative bacteria such as Escherichia coli (ATCC 27325), Salmonella enteritidis (ATCC 15277) and Pseudomonas putida (ATCC 17426) and fungi such as Candida albicans (ATCC 10231), Saccharomyces cerevisiae (ATCC 44774) and Cryptococcus neoformans (ATCC 34881), obtained from American Type Culture Collection (ATCC).
(§2) The antimicrobial activity of the peptides prepared in Example 1 was determined against microorganisms by 96-well microdilution minimal inhibitory concentration assay. After overnight culturing the bacteria and fungi in trypticase soy broth (TSB) and Saboraud (SAB) at 37° C. and 30° C., respectively, they were inoculated in new media and cultured for 2 hours to exponential growth phase. After diluting the microorganisms to 10^5 per 1 ml, 190 μl was inoculated in each 96-well plate, and 10 μl of serially diluted peptides were added in each well.

In experiment [2] the test system is Candida albicans (ATCC 10231). To be noted: ATCC 10231, 12 h.
Text: as §1, §2

In experiment [3] the test system is Cryptococcus neoformans (ATCC 34881). To be noted: ATCC 34881, 12 h.
Text: as §1, §2

The subject of experiment [4] is Escherichia coli (ATCC 27325). The settings on record: ATCC 27325, 12 h.
Text: as §1, §2

Experiment [5] relates to Pseudomonas putida (ATCC 17426). To be noted: ATCC 17426, 12 h.
Text: as §1, §2

Experiment [6] has as its system Saccharomyces cerevisiae (ATCC 44774). The settings on record: ATCC 44774, 12 h.
Text: as §1, §2

Experiment [7] concerns Salmonella enteritidis (ATCC 15277). The settings on record: ATCC 15277, 12 h.
Text: as §1, §2

Experiment [8] relates to Staphylococcus aureus (ATCC 15752). To be noted: ATCC 15752, 12 h.
Text: as §1, §2

Experiment [9] concerns Streptococcus mutans (ATCC 25175). To be noted: ATCC 25175, 12 h.
Text: as §1, §2

Take RLLRRLLRRLLRNWPIGRLLR [compound 54]: the “Minimum Inhibitory Concentration” value in experiment [1] is 1 µg/mL; in [2] it was 1 µg/mL; in experiment [3] it was 1 µg/mL; in experiment [4] it was 2 µg/mL; in [5], 1 µg/mL; in [6] it was 2 µg/mL. In addition, the entries for the “Minimum Inhibitory Concentration” value in experiment [7], in experiment [8] and in [9] were 1 µg/mL, 1 µg/mL and 2 µg/mL, respectively.
In the case of RLLRRLLRRLLRQWPIGRLLR [compound 37], the “Minimum Inhibitory Concentration” value in experiment [1] was found to be 1 µg/mL; in [2], 2 µg/mL; in experiment [3], 2 µg/mL; in experiment [4], 1 µg/mL; in experiment [5], 1 µg/mL; in [6], 2 µg/mL. For the same substance, the “Minimum Inhibitory Concentration” value in [7] was found to be 2 µg/mL; in experiment [8], 1 µg/mL; in experiment [9], 1 µg/mL.
In the case of RLVKNWPIGRLVKRLVKRLVK [compound 32], the “Minimum Inhibitory Concentration” value came to 1 µg/mL in [1]; 1 µg/mL in [2]; 1 µg/mL in experiment [3]; 1 µg/mL in experiment [4]; 1 µg/mL in [5]; 2 µg/mL in [6]. Besides, the “Minimum Inhibitory Concentration” value in experiment [7] came out at 1 µg/mL; in [8] it was 1 µg/mL; in experiment [9], 2 µg/mL.
In the case of RLVKNWPIGRLVKRLVKRLVK-NH2 [compound 70], the “Minimum Inhibitory Concentration” value in experiment [1], in [2], in experiment [3], in experiment [4], in [5] and in experiment [6] was 1 µg/mL in each case. The “Minimum Inhibitory Concentration” value was 1 µg/mL in experiment [7], 1 µg/mL in experiment [8] and 2 µg/mL in experiment [9].
Consider RLVKRLVKRLVKNWPIGRLVK [compound 66], for which the “Minimum Inhibitory Concentration” value amounted to 1 µg/mL in experiment [1]; 1 µg/mL in experiment [2]; 1 µg/mL in [3]; 2 µg/mL in [4]; 1 µg/mL in experiment [5]; 2 µg/mL in experiment [6]. The “Minimum Inhibitory Concentration” value in [7] is 1 µg/mL; in experiment [8], 1 µg/mL; in experiment [9] it was 2 µg/mL.
In the case of RLVRNWPIGRLVRRLVRRLVR [compound 24], the “Minimum Inhibitory Concentration” value in experiment [1] was found to be 1 µg/mL; in experiment [2], 2 µg/mL; in [3] it was 1 µg/mL; in [4] it was 1 µg/mL; in experiment [5], 1 µg/mL; in experiment [6] it was 2 µg/mL. The results for the “Minimum Inhibitory Concentration” value in [7], in experiment [8] and in experiment [9] were 2 µg/mL, 1 µg/mL and 1 µg/mL, respectively.
As to RLVRRLVRRLVRNWPIGRLVR [compound 58], the “Minimum Inhibitory Concentration” value in experiment [1] amounted to 1 µg/mL; in [2], 2 µg/mL; in experiment [3], 1 µg/mL; in experiment [4], 1 µg/mL; in [5] it was 1 µg/mL; in [6] it was 2 µg/mL. In addition, the “Minimum Inhibitory Concentration” value in experiment [7], in experiment [8] and in experiment [9] was 1 µg/mL throughout.
RVLKQWPIGRVLKRVLKRVLK [compound 13]: the “Minimum Inhibitory Concentration” value was 2 µg/mL in experiment [1]; 1 µg/mL in experiment [2]; 1 µg/mL in [3]; 1 µg/mL in experiment [4]; 1 µg/mL in experiment [5]; 2 µg/mL in [6]. Also, the “Minimum Inhibitory Concentration” value in experiment [7] was found to be 1 µg/mL; in experiment [8] it was 1 µg/mL; in [9], 2 µg/mL.
Turning to RVLKRVLKRVLKNWPIGRVLK-NH2 [compound 72], the “Minimum Inhibitory Concentration” value was 1 µg/mL in experiment [1]; 1 µg/mL in experiment [2]; 1 µg/mL in [3]; 1 µg/mL in experiment [4]; 1 µg/mL in experiment [5]; 2 µg/mL in experiment [6]. The results for the “Minimum Inhibitory Concentration” value in [7], in [8] and in experiment [9] were 1 µg/mL, 1 µg/mL and 2 µg/mL, respectively.
With RVLKRVLKRVLKQWPIGRVLK [compound 47], the “Minimum Inhibitory Concentration” value in [1] was determined as 1 µg/mL; in experiment [2] it was 1 µg/mL; in experiment [3], 1 µg/mL; in experiment [4], 1 µg/mL; in experiment [5] it was 1 µg/mL; in experiment [6] it was 2 µg/mL. The “Minimum Inhibitory Concentration” value in experiment [7] turned out to be 1 µg/mL; in experiment [8], 1 µg/mL; in experiment [9], 2 µg/mL.
Take RVLRQWPIGRVLRRVLRRVLR [compound 5]: the “Minimum Inhibitory Concentration” value in [1] came to 1 µg/mL; in experiment [2], 1 µg/mL; in experiment [3] it was 1 µg/mL; in experiment [4], 1 µg/mL; in experiment [5], 1 µg/mL; in [6], 2 µg/mL. For the same substance, the “Minimum Inhibitory Concentration” value in experiment [7], in experiment [8] and in [9] was 1 µg/mL throughout.
With RVLRRVLRRVLRQWPIGRVLR [compound 39], the “Minimum Inhibitory Concentration” value was found to be 2 µg/mL in [1]; 2 µg/mL in experiment [2]; 1 µg/mL in experiment [3]; 1 µg/mL in experiment [4]; 1 µg/mL in experiment [5]; 2 µg/mL in [6]. The “Minimum Inhibitory Concentration” value in experiment [7] was determined as 1 µg/mL; in [8], 2 µg/mL; in [9] it was 2 µg/mL.
RVVKNWPIGRVVKRVVKRVVK [compound 26]: the “Minimum Inhibitory Concentration” value in experiment [1] turned out to be 1 µg/mL; in experiment [2], 2 µg/mL; in experiment [3] it was 1 µg/mL; in experiment [4], 2 µg/mL; in experiment [5] it was 1 µg/mL; in [6] it was 2 µg/mL. The “Minimum Inhibitory Concentration” value in [7], in experiment [8] and in experiment [9] was 1 µg/mL throughout.
RVVKRVVKRVVKNWPIGRVVK [compound 60]: the “Minimum Inhibitory Concentration” value in [1] came to 1 µg/mL; in [2], 1 µg/mL; in experiment [3] it was 1 µg/mL; in experiment [4], 2 µg/mL; in experiment [5], 1 µg/mL; in experiment [6], 1 µg/mL. Besides, the “Minimum Inhibitory Concentration” value in [7], in [8] and in experiment [9] was 2 µg/mL throughout.
Take RVVRNWPIGRVVRRVVRRVVR [compound 18]: the “Minimum Inhibitory Concentration” value in experiment [1], in experiment [2], in [3], in [4], in experiment [5] and in experiment [6] was 1 µg/mL in each case. Besides, the results for the “Minimum Inhibitory Concentration” value in [7], in experiment [8] and in [9] were 2 µg/mL, 1 µg/mL and 2 µg/mL, respectively.
